Test results as given in ChEMBL document CHEMBL2150920, “Discovery of a potent and selective small molecule hGPR91 antagonist” (Bioorg Med Chem Lett, 2011).

Assays:
Succinate receptor 1 = target: T1, Succinate receptor 1 (Homo sapiens, UniProt Q9BXA5); assay: Antagonist activity at human GPR91 receptor expressed in CHO-K1 cells co-expressing Galpha and Gqi5 G-protein assessed as inhibition of succinate-induced increase in intracellular calcium level by FLIPR assay; type: functional, cell-based
T1 sequence (Q9BXA5 whole entry): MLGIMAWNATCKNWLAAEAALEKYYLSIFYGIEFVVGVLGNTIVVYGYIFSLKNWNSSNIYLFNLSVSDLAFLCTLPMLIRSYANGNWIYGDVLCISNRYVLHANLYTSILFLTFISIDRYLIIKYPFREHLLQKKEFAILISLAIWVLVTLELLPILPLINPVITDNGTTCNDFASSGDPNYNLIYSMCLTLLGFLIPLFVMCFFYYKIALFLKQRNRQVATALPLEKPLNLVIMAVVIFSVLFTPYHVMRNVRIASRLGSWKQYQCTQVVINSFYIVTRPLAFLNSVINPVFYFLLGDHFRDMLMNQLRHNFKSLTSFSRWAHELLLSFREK

Liver microsomes = assay: Intrinsic clearance in rat liver microsomes preincubated for 5 mins before addition of NADPH measured after 30 mins by LC/MS/MS analysis; type: ADME, Microsome; conditions: 0.5 h

IC50 (Succinate receptor 1) [nM]	Intrinsic clearance (Liver microsomes) [nmol/min/mg]	Compound
41	0.34	O=C(CCCc1ccc2cccnc2n1)NCc1ccc(-c2cccc(C(F)(F)F)c2)cc1F
4000	–	Fc1ccc(-c2nnc(CCCCc3ccc4cccnc4n3)o2)cc1OC(F)(F)F
65	0.4	CCc1cccc(-c2ccc(CNC(=O)CCCc3ccc4cccnc4n3)cc2)c1
34	0.2	O=C(NCc1ccc(-c2ccc(F)c(C(F)(F)F)c2)cc1)C(O)(c1ccc(-c2ccc3cccnc3n2)cc1)C(F)(F)F (centres undefined)
2000	0.16	Fc1ccc(-c2nnc(CCCCc3ccc4cccnc4n3)o2)cc1C(F)(F)F
1000	0.6	COc1cccc(-c2ccc(CNC(=O)CCCc3ccc4cccnc4n3)cc2)c1
3000	–	FC(F)(F)Oc1ccc(-c2nnc(CCCCc3ccc4cccnc4n3)o2)cc1
16	0.25	CC(NC(=O)CCCc1ccc2cccnc2n1)c1ccc(-c2cccc(C(F)(F)F)c2)cc1 (centres undefined)
100	0.2	Fc1ccc(-c2ccc(-c3nnc(CCCc4ccc5cccnc5n4)o3)cc2)cc1Cl
3000	–	Clc1cccc(-c2ccc(-c3nnc(CCCc4ccc5cccnc5n4)s3)cc2)c1
14	0.25	C[C@H](NC(=O)C(C)(C)c1ccc(-c2ccc3cccnc3n2)cc1)c1ccc(-c2ccc(F)c(C(F)(F)F)c2)cc1
49	0.2	O=C(CCCc1ccc2cccnc2n1)NCc1cnc(-c2ccc(F)c(C(F)(F)F)c2)nc1
38	0.2	O=C(CCCc1ccc2cccnc2n1)NCc1ccc(-c2ccc(F)c(Cl)c2)cc1
19	0.14	C[C@H](NC(=O)C(F)(F)c1ccc(-c2ccc3cccnc3n2)cc1)c1ccc(-c2ccc(F)c(C(F)(F)F)c2)cc1
3000	0.07	FC(F)(F)c1ccc(-c2nnc(CCCCc3ccc4cccnc4n3)o2)cc1
1000	0.17	O=C(CCCc1ccc2cccnc2n1)NCc1ccc(-c2ccccc2)cc1
17	0.28	CC(C)(C(=O)NCc1ccc(-c2ccc(F)c(C(F)(F)F)c2)cc1)c1ccc(-c2ccc3cccnc3n2)cc1
75	0.28	O=C(Cc1ccc(-c2ccc3cccnc3n2)cc1)NCc1ccc(-c2ccc(F)c(C(F)(F)F)c2)cc1
500	0.2	O=C(CCCc1ccc2cccnc2n1)NCc1ccc(-c2cccc(OC(F)(F)F)c2)cc1
1000	0.14	Fc1ccc(-c2ccc(-c3nnc(CCCc4ccc5cccnc5n4)[nH]3)cc2)cc1Cl
> 3000	–	Clc1ccc(-c2nnc(CCCCc3ccc4cccnc4n3)o2)cc1
200	–	O=C(CCCc1ccc2cccnc2n1)NCc1ncc(-c2ccc(F)c(C(F)(F)F)c2)cn1
270	–	O=C(CCCc1ccc2cccnc2n1)NCc1nnc(-c2ccc(F)c(C(F)(F)F)c2)s1
300	–	Cc1cc(-c2ccc(CNC(=O)CCCc3ccc4cccnc4n3)cc2)ccc1Cl
210	0.18	O=C(CCCc1ccc2cccnc2n1)NCc1cnn(-c2ccc(F)c(C(F)(F)F)c2)c1
90	0.11	O=C(CCCc1ccc2cccnc2n1)NCc1cc(-c2ccc(F)c(Cl)c2)no1
18	0.2	C[C@H](NC(=O)C(O)c1ccc(-c2ccc3cccnc3n2)cc1)c1ccc(-c2ccc(F)c(C(F)(F)F)c2)cc1 (some centres undefined)
1000	–	O=C(CCCc1ccc2cccnc2n1)NCc1nnc(-c2ccc(F)c(C(F)(F)F)c2)o1
720	–	O=C(CCCc1ccc2cccnc2n1)NCc1ccc(-c2ccc(F)c(C(F)(F)F)c2)nn1
